Measurements from PMC9611540, “PEGylation of the antimicrobial peptide LyeTx I-b maintains structure-related biological properties and improves selectivity” (Frontiers in Molecular Biosciences, 2022).

What was measured:
[1] = test system: Staphylococcus aureus (ATCC 33591); format: cell-based; details: for MIC: S. aureus ATCC 33591, microdilution plates, Mueller Hinton, 10^4 bacterial cells per well, peptides 32 to 0.25 μM, triplicate
Description: (§1) Escherichia coli (ATCC 25922), Staphylococcus aureus (ATCC 33591), and three multidrug-resistant isolates (two E. coli and one S. aureus) were provided by Laboratory of Oral Microbiology and Anaerobes, Department of Microbiology, Institute of Biological Sciences, Federal University of Minas Gerais. Renal epithelial cells of the African green monkey (Cercopithecus aethiops) (VERO, ATCC CCL-81) were provided by the Federal University of Sao Joao del-Rei (UFSJ).
(§2) In order to determine MIC values of the PEGylated and the non-PEGylated peptides, bacterial isolates were cultured in TSA. After incubation for 24 h, at 37°C, under aerobic conditions, colonies were collected using an inoculation loop and transferred to saline solution (0.9% m/v NaCl). The inoculums were checked in a spectrophotometer at 600 nm; colonies were added until an absorbance corresponding to 1.5 × 10^8 cells · mL^−1 was obtained. Then, a 150-fold dilution was performed to achieve a concentration of 1 × 10^6 cells · mL^−1. MIC assays were performed in microdilution plates employing inoculums of 10^4 bacterial cells per well and concentrations of peptides ranging from 32 to 0.25 μM. All analyses were performed in triplicate. Positive (MH + bacterial inoculum) and negative (MH and MH + saline solution) controls were included in each batch of tests.
(§3) The specific values of molar peptide concentration used in this work were estimated according to the method described by [Schmid (2001)].

[2] = test system: Escherichia coli (ATCC 25922); format: cell-based; details: for MIC: E. coli ATCC 25922, microdilution plates, Mueller Hinton, 10^4 bacterial cells per well, peptides 32 to 0.25 μM, triplicate
Description: as §1, §2, §3

[3] = test system: S. aureus ISOL_1 (multidrug-resistant isolate); format: cell-based, Staphylococcus aureus; details: for MIC: S. aureus ISOL_1, microdilution plates, Mueller Hinton, 10^4 bacterial cells per well, peptides 32 to 0.25 μM, triplicate
Description: as §1, §2, §3

[4] = test system: E.coli ISOL_10 (multidrug-resistant isolate); format: cell-based, Escherichia coli; details: microdilution plates, Mueller Hinton, 10^4 bacterial cells per well, peptides 32 to 0.25 μM, triplicate
Description: as §1, §2, §3

[5] = test system: E.coli ISOL_11 (multidrug-resistant isolate); format: cell-based, Escherichia coli; details: for MIC: E. coli ISOL_11, microdilution plates, Mueller Hinton, 10^4 bacterial cells per well, peptides 32 to 0.25 μM, triplicate
Description: as §1, §2, §3

[6] = test system: trypsin; assay: Proteolytic degradation assay, RP-HPLC; format: in vitro ADME; details: 50 μM peptide, enzyme:substrate 1:50 (w/w), 10 mM phosphate buffer pH 8.0, 37°C, up to 24 h, RP-HPLC C18, UV 215 nm
Method: (§4) The enzymes used in the experiments were trypsin and proteinase K. Enzyme solutions were prepared a few minutes before the experiments and contained 1.0 µM enzyme in 10 mM phosphate buffer at pH 8.0 for activation. Comparative proteolysis experiments between LyeTx I-b and LyeTx I-bPEG were performed by digesting the peptide solution (50 μM) with the enzyme solutions incubated at 37°C at an enzyme:substrate ratio of 1:50 (w/w) for trypsin and 1:50 (w/w) for proteinase K for 24 h. […] After inactivation, aliquots of 50 µL were injected into a Varian™ chromatograph (Varian, Inc. Corporate Headquarters, Palo Alto, CA, United States), model Pro Star 315, with ultraviolet detector, model Pro Star 335, using a Vydac™ 218 TP C18 (250 × 4.6 mm) reverse phase column. Chromatographic analyses were performed using a gradient of deionized water containing 0.1% TFA and acetonitrile containing 0.08% TFA. Samples were detected at 215 nm under a flow of 0.80 mL · min^−1 for 45 min.

[7] = target: proteinase K (Parengyodontium album, UniProt P06873); assay: Proteolytic degradation assay, RP-HPLC; format: in vitro ADME; details: 50 μM peptide, enzyme:substrate 1:50 (w/w) or 1:25 (w/w), 10 mM phosphate buffer pH 8.0, 37°C, up to 24 h, RP-HPLC C18, UV 215 nm
Method: as §4

Sequence of proteinase K (P06873 106-384): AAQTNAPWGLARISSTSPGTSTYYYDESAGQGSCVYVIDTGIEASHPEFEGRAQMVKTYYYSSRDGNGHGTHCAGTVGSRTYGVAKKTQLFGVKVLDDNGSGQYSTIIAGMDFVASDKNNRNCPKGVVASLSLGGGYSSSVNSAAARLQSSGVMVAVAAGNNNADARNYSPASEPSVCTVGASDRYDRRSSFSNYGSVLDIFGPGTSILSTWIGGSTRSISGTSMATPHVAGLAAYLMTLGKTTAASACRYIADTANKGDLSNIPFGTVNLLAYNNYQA

Substance | MIC [1] | MIC [2] | MIC [3] | MIC [4] | MIC [5] | Selectivity index (SI) ([1]; S. aureus ATCC 33591 versus VERO cells (CC50, MTT, 24 h)) | Selectivity index (SI) ([2]; E. coli ATCC 25922 versus VERO cells (CC50, MTT, 24 h)) | Proteolytic degradation by trypsin [6] | Proteolytic degradation by proteinase K [7] | Selectivity index (SI) ([3]; S. aureus ISOL_1 versus VERO cells (CC50, MTT, 24 h)) | Selectivity index (SI) ([5]; E. coli ISOL_11 versus VERO cells (CC50, MTT, 24 h))
Ac-IWLTALKFLGKNLGKLAKQQCAKL-NH2 [LyeTx I-bcys] | 2.0 µM | 1.0 µM | 2.0 µM | 1.0 µM | 1.0 µM |  |  |  |  |  | 
Ac-IWLTALKFLGKNLGKLAKQQLAKL-NH2 [LyeTx I-b] | 2.0 µM | 1.0 µM | 2.0 µM | 1.0 µM | 1.0 µM | 0.48 | 0.96 | almost completely degraded after 6 h | almost completely degraded after 6 h | 0.48 | 0.96
